Experiment [1] has as its target GABA A receptor alpha-5/beta-3/gamma-2 (Rattus norvegicus) (UniProt P18508+P19969+P63079). Nature of the experiment: Displacement of [3H]Ro15-1788 from recombinant rat GABAAalpha5/beta3/gamma2 receptor at 10 uM after 90 mins by liquid scintillation counting method relative to control. The class given is protein-complex assay.
The target in experiment [2] is GABA-A receptor; alpha-1/beta-2/gamma-2 (Rattus norvegicus, UniProt P18508+P62813+P63138). Nature of the experiment: Displacement of [3H]Ro15-1788 from recombinant rat GABAAalpha1/beta2/gamma2 receptor after 90 mins by liquid scintillation counting method. In kind it is protein-complex assay. A general note: Displacement assays read how much labelled ligand stays bound in the presence of the test substance.
Sequence of GABA-A receptor; alpha-1/beta-2/gamma-2 (P18508 whole entry): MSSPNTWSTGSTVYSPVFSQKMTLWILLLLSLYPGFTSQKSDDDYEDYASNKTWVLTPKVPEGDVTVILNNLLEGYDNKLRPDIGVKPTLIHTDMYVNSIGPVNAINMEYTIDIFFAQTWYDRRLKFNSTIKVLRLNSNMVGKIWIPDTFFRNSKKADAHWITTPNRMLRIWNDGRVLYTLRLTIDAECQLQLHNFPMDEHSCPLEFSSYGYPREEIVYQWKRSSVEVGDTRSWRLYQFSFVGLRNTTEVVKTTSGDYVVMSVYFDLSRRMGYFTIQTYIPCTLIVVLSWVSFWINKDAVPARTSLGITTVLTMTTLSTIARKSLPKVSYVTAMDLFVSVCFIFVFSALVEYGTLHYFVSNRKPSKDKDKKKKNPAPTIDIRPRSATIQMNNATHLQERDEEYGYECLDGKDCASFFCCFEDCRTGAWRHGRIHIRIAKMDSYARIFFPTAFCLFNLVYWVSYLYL
Sequence of GABA-A receptor; alpha-1/beta-2/gamma-2 (P62813 whole entry): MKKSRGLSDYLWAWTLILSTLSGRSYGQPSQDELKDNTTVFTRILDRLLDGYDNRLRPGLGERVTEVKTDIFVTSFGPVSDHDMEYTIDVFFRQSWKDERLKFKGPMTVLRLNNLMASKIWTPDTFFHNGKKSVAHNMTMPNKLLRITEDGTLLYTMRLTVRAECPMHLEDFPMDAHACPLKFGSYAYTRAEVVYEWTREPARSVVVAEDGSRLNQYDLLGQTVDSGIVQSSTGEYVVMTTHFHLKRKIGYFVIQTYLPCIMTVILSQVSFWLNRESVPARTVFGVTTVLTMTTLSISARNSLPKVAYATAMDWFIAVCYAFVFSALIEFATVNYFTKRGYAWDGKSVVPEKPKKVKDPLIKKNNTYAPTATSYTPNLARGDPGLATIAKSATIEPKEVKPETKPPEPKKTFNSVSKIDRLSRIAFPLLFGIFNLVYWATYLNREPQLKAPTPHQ
Sequence of GABA-A receptor; alpha-1/beta-2/gamma-2 (P63138 whole entry): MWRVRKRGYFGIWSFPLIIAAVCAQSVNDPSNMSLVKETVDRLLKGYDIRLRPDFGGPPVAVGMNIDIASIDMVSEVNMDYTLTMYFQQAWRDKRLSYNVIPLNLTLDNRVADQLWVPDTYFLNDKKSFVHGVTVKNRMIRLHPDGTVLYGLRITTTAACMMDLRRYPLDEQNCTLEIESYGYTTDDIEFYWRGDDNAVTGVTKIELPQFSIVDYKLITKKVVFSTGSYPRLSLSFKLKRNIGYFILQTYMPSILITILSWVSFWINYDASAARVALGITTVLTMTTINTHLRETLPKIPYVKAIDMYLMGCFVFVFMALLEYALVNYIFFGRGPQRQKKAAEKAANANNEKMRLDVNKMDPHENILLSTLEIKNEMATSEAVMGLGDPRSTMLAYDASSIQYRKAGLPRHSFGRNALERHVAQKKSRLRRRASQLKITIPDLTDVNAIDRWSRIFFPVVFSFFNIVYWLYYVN

Experiment [3] can be described thus: Displacement of [3H]Ro15-1788 from GABAA receptor in bovine cerebral cortex membranes after 90 mins by liquid scintillation counting method. The class given is cell membranes, Bos taurus, Membrane.
Experiment [4] can be described thus: Displacement of [3H]Ro15-1788 from recombinant rat GABAAalpha2/beta2/gamma2 receptor after 90 mins by liquid scintillation counting method.
The nature of experiment [5]: Displacement of [3H]Ro15-1788 from recombinant rat GABAAalpha3/beta2/gamma2 receptor after 90 mins by liquid scintillation counting method.
Experiment [6] concerns the target GABA A receptor alpha-5/beta-3/gamma-2 (Rattus norvegicus, UniProt P18508+P19969+P63079). Nature of the experiment: Displacement of [3H]Ro15-1788 from recombinant rat GABAAalpha5/beta3/gamma2 receptor after 90 mins by liquid scintillation counting method. The class given is protein-complex assay.
Another experiment is filed under the species Bos taurus. Nature of the experiment: Displacement of [3H]Ro15-1788 from GABAA receptor in bovine cerebral cortex membranes at 10 uM after 90 mins by liquid scintillation counting method relative to control. In kind it is cell membranes. Conditions: Membrane.
The species named for experiment [7] is Rattus norvegicus. Nature of the experiment: Selectivity ratio of Ki for recombinant rat GABAAalpha1/beta2/gamma2 receptor to Ki for recombinant rat GABAAalpha2/beta2/gamma2 receptor.
Experiment [8] is filed under the species Rattus norvegicus. Nature of the experiment: Selectivity ratio of Ki for recombinant rat GABAAalpha5/beta3/gamma2 receptor to Ki for recombinant rat GABAAalpha2/beta2/gamma2 receptor.
Experiment [9] is filed under the species Rattus norvegicus. Nature of the experiment: Displacement of [3H]Ro15-1788 from recombinant rat GABAAalpha3/beta2/gamma2 receptor at 10 uM after 90 mins by liquid scintillation counting method relative to control.
For experiment [10], the species on record is Rattus norvegicus. Nature of the experiment: Displacement of [3H]Ro15-1788 from recombinant rat GABAAalpha2/beta2/gamma2 receptor at 10 uM after 90 mins by liquid scintillation counting method relative to control.

Sequence of GABA A receptor alpha-5/beta-3/gamma-2 (P18508 whole entry): as the sequence (P18508 whole entry) above
Sequence of GABA A receptor alpha-5/beta-3/gamma-2 (P19969 whole entry): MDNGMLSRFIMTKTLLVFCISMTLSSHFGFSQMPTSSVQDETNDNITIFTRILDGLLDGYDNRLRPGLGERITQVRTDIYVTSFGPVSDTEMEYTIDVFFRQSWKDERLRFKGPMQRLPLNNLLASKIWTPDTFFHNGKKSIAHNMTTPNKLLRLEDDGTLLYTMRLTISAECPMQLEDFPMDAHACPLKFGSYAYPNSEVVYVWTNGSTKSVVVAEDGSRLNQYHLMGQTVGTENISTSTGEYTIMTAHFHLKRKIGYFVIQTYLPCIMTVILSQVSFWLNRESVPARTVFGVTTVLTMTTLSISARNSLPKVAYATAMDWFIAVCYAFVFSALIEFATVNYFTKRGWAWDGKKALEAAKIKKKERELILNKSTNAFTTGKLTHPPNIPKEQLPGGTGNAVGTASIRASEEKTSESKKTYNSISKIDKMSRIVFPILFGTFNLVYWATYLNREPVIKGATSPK
Sequence of GABA A receptor alpha-5/beta-3/gamma-2 (P63079 whole entry): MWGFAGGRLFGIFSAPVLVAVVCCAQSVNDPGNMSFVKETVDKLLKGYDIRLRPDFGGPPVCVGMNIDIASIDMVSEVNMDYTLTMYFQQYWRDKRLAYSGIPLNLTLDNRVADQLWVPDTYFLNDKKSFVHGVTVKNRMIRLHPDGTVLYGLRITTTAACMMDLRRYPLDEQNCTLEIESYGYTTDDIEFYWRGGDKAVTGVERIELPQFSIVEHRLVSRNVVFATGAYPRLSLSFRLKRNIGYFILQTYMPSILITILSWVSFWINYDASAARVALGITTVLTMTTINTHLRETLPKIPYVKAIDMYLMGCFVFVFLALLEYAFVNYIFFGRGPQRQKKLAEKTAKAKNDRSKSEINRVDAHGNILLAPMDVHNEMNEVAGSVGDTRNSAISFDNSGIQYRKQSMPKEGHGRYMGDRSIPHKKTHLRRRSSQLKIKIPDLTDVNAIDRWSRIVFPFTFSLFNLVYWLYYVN

`O=c1c(-c2cc[nH]n2)n[nH]c2c(-c3ccccn3)cnn12`: the inhibition (commonly how much of the control response was suppressed) in [1] was determined as 32%. Besides, the Ki – broadly, the equilibrium dissociation constant of an inhibitor or competing ligand from its target – in experiment [2] worked out at 0.0091 µM; in experiment [3], 0.0105 µM; in experiment [4] it was 0.012 µM.

On to `O=c1c(-c2cc[nH]n2)n[nH]c2c(-c3cccc(F)c3)cnn12`, for which the inhibition in experiment [1] is 23%. Moreover, the inhibitory constant (Ki) is 0.1 µM in experiment [2], 0.152 µM in [3], 0.632 µM in experiment [4] and 1.08 µM in [5].

Regarding `O=c1c(-c2cc[nH]n2)n[nH]c2c(-c3ccc4ccccc4c3)cnn12`, the Ki in experiment [3] amounted to 2.3 µM.

On to `O=c1c(-c2cc[nH]n2)n[nH]c2c(-c3ccc(F)cc3)cnn12`, for which the Ki in experiment [2] worked out at 0.0773 µM; in experiment [3] it was 0.0883 µM; in experiment [4], 2.42 µM; in experiment [6], 1.11 µM; in experiment [5], 0.894 µM.

Compound `O=c1c(-n2cccn2)c[nH]c2c(-c3cccs3)cnn12` had an inhibition in the experiment listed under Bos taurus of 13.9%.

Take `O=c1c(-c2cc[nH]n2)n[nH]c2c(-c3cccc(C(F)(F)F)c3)cnn12`: the Ki is 0.0065 µM in experiment [2]; 0.0072 µM in experiment [3]; more than 5 µM in experiment [4]; 0.144 µM in [6]; 0.501 µM in experiment [5].

For the compound `O=c1c(-c2cc[nH]n2)n[nH]c2c(-c3ccccc3)cnn12`, the Ki in experiment [2] is 0.42 µM; in experiment [3] it was 0.329 µM; in experiment [4], 3 µM; in [6], 0.408 µM; in experiment [5], 2.09 µM.

`O=c1c(-c2cc[nH]n2)c[nH]c2c(-c3ccccn3)cnn12` came in with a Ki in [3] of 0.0142 µM.

As for `O=c1c(-c2cc[nH]n2)n[nH]c2c(-c3cccnc3)cnn12`, the Ki came to 0.051 µM in [2]; 0.0736 µM in [3]; 5 µM in [4]; 1.24 µM in [6]; 0.502 µM in experiment [5].

Consider `O=c1c(-c2cc[nH]n2)n[nH]c2c(-c3cccc(Cl)c3)cnn12`, for which the inhibition in experiment [1] worked out at 40%. The Ki in experiment [2] came to 0.0656 µM; in experiment [3], 0.074 µM; in experiment [4] it was 0.99 µM; in [5], 0.66 µM.

Consider `O=c1c(-c2cc[nH]n2)c[nH]c2c(Cc3ccccc3)cnn12`, for which the Ki in experiment [3] worked out at 0.854 µM.

As to `O=c1c(-c2cc[nH]n2)n[nH]c2c(-c3cccs3)cnn12`, the Ratio Ki in the experiment listed under Rattus norvegicus [7] came out at 7; in the experiment filed under Rattus norvegicus [8] it was 16. Also, the Ki turned out to be 0.285 µM in experiment [2], 0.237 µM in experiment [3], 0.0412 µM in [4] and 0.662 µM in [6]. Besides, the inhibition in the experiment listed under Rattus norvegicus [9] is 28%.

Regarding `O=c1c(-n2ccnc2)c[nH]c2c(-c3cccs3)cnn12`, the inhibition in the experiment filed under Bos taurus is 14.7%.

Turning to `O=c1c(-c2cc[nH]n2)c[nH]c2c(-c3cccnc3)cnn12`, the affinity in experiment [3], expressed as Ki, was 0.0373 µM.

In [3], `O=c1c(-c2cc[nH]n2)c[nH]c2c(-c3ccccc3)cnn12` showed a Ki of 0.326 µM.

The compound `O=c1c(-c2cc[nH]n2)c[nH]c2c(-n3cccc3)cnn12` came in with a Ki in experiment [3] of 2.67 µM.

The compound `O=c1c(-n2ccnc2)c[nH]c2c(-c3ccccc3)cnn12` displayed an inhibition in the experiment filed under Bos taurus of 2%.

For `O=c1c(-c2cc[nH]n2)n[nH]c2c(-c3cccc4ccccc34)cnn12`, the Ki in experiment [2] was found to be 0.15 µM; in [3] it was 0.077 µM; in experiment [6], 0.159 µM.

Turning to `O=c1c(-c2cc[nH]n2)c[nH]c2c(-c3cccs3)cnn12`, in [3], the affinity, expressed as Ki, was 0.533 µM.

As for `O=c1c(-c2cc[nH]n2)c[nH]c2c(-c3ccc4ccccc4c3)cnn12`, in the experiment filed under Bos taurus, the inhibition worked out at 20%.

Take `O=c1c(-c2cc[nH]n2)n[nH]c2c(-c3cccc(Br)c3)cnn12`: in the experiment listed under Rattus norvegicus [10], the inhibition amounted to 50%. Moreover, the Ki in experiment [2] was found to be 0.021 µM; in [3] it was 0.038 µM; in experiment [6], 1.12 µM; in experiment [5] it was 0.57 µM.

In experiment [3], `O=c1c(-c2cc[nH]n2)c[nH]c2c(-c3cccc(Cl)c3)cnn12` displayed a Ki of 0.0954 µM.

`COc1ccc(-c2cnn3c(=O)c(-c4cc[nH]n4)n[nH]c23)cc1` came in with a Ki in [3] of 1.61 µM.

`Cc1ccc(-c2cnn3c(=O)c(-c4cc[nH]n4)n[nH]c23)cc1`: in the experiment filed under Bos taurus, the inhibition came out at 32%.

Regarding `O=c1c(-n2cccn2)c[nH]c2c(-c3ccccc3)cnn12`, the inhibition in the experiment listed under Bos taurus worked out at 59.5%.

With `O=c1c(-c2cc[nH]n2)c[nH]c2c(-c3cccc4ccccc34)cnn12`, the Ki in experiment [3] stood at 0.599 µM.

The record behind these values is ChEMBL document CHEMBL4219222, “A new class of pyrazolo[5,1-c][1,2,4]triazines as γ-aminobutyric type A (GABAA) receptor subtype ligand: synthesis and pharmacological evaluation” (Bioorg Med Chem, 2018).
